Data set [1] is described as follows: Antiproliferative activity against human DLD1 cells expressing mutant p53 after 3 days by luminescent cell viability assay. The data set is classed as cell-based, DLD-1.
Data set [2] concerns SJSA-1. The data set can be described thus: Antiproliferative activity against human SJSA1 cells expressing wildtype p53 after 3 days by luminescent cell viability assay. The conditions noted are these: SJSA-1, 72 h. The data set is classed as functional.
Data set [3] is described as follows: Solubility in phosphate buffer at 10 mM at pH 6.8 by HPLC analysis. The data set is classed as physicochemical.
A short description of data set [4]: Metabolic stability in mouse hepatic microsome assessed as compound remaining measured at 1 uM after 30 mins by LC-MS/MS analysis. The data set is classed as ADME. The settings on record: liver microsomes, read-out: Stability.
Data set [5] relates to Mus musculus. Kind of data set: Toxicity in human SJSA1 cells xenografted in BALB/c SLc-nu/nu mouse assessed as body weight loss at 12.5 mg/kg, po compound administered from day 17 to 20 (qdx4) measured on day 25 (reference value: <0%). The settings on record: in vivo. The data set is classed as organism-based, SJSA-1. On the set-up: dose 12.5 mg/kg, route oral.
Data set [6] in a line: Cmax in mouse at 50 mg/kg, po. The conditions noted are these: in vivo. Also noted: dose 50 mg/kg, route oral. The data set is classed as ADME, organism-based.
Data set [7] relates to SJSA-1. Kind of data set: Antitumor activity against human SJSA1 cells xenografted in BALB/c SLc-nu/nu mouse assessed as increase in p21 accumulation in tumor at 12.5 mg/kg, po single dose by Western blot analysis. The data set is classed as functional, organism-based. On the set-up: dose 12.5 mg/kg.
Data set [8] in a line: Plasma concentration in mouse at 25 mg/kg, po after 6 hrs. The data set is classed as ADME, organism-based. Also noted: dose 25 mg/kg, route oral.
Data set [9] relates to SJSA-1. The data set can be described thus: Antitumor activity against human SJSA1 cells xenografted in BALB/c SLc-nu/nu mouse assessed as tumor growth inhibition at 100 mg/kg, po compound administered from day 17 to 20 (qdx4) measured on day 25 (reference value: 0%). The data set is classed as functional. The conditions noted are these: read-out: TGI.
Data set [10] concerns SJSA-1. Kind of data set: Antitumor activity against human SJSA1 cells xenografted in BALB/c SLc-nu/nu mouse assessed as tumor growth inhibition at 50 mg/kg, po compound administered from day 17 to 20 (qdx4) measured on day 25 (reference value: 0%). The data set is classed as functional. The conditions noted are these: read-out: TGI.
In data set [11] the test system is SJSA-1. Kind of data set: Antitumor activity against human SJSA1 cells xenografted in BALB/c SLc-nu/nu mouse assessed as tumor growth inhibition at 25 mg/kg, po compound administered from day 17 to 20 (qdx4) measured on day 25 (reference value: 0%). The data set is classed as functional. The conditions noted are these: read-out: TGI.
A short description of data set [12]: AUC in mouse plasma at 50 mg/kg, po. The data set is classed as ADME, organism-based. Also noted: dose 50 mg/kg, route oral.
The subject of data set [13] is SJSA-1. The data set can be described thus: Antitumor activity against human SJSA1 cells xenografted in BALB/c SLc-nu/nu mouse assessed as increase in Mdm2 accumulation in tumor at 12.5 mg/kg, po single dose by Western blot analysis. On the set-up: dose 12.5 mg/kg. The data set is classed as functional, organism-based.
The nature of data set [14]: Plasma concentration in mouse at 50 mg/kg, po after 6 hrs. The data set is classed as ADME, organism-based. Also noted: dose 50 mg/kg, route oral.
The nature of data set [15]: AUC in mouse plasma at 100 mg/kg, po. The data set is classed as ADME, organism-based. Also noted: dose 100 mg/kg, route oral.
Data set [16] has as its system Mus musculus. The data set can be described thus: Toxicity in human SJSA1 cells xenografted in BALB/c SLc-nu/nu mouse assessed as body weight loss at 50 mg/kg, po compound administered from day 17 to 20 (qdx4) measured on day 25 (reference value: <0%). The conditions noted are these: in vivo. Also noted: dose 50 mg/kg, route oral. The data set is classed as organism-based, SJSA-1.

A short description of data set [17]: Cmax in mouse at 25 mg/kg, po. The data set is classed as ADME, organism-based. Also noted: dose 25 mg/kg, route oral. The settings on record: in vivo.
A short description of data set [18]: Cmax in mouse at 100 mg/kg, po. The data set is classed as ADME, organism-based. On the set-up: dose 100 mg/kg, route oral. The settings on record: in vivo.
Data set [19] is described as follows: Plasma concentration in mouse at 100 mg/kg, po after 19 hrs. The data set is classed as ADME, organism-based. On the set-up: dose 100 mg/kg, route oral.
Data set [20] in a line: Plasma concentration in mouse at 100 mg/kg, po after 6 hrs. The data set is classed as ADME, organism-based. On the set-up: dose 100 mg/kg, route oral.
Data set [21] has as its system SJSA-1. Kind of data set: Induction of apoptosis in human SJSA1 cells xenografted in BALB/c SLc-nu/nu mouse assessed as PARP cleavage in tumor at 12.5 mg/kg, po single dose by Western blot analysis. The data set is classed as functional, organism-based. Also noted: dose 12.5 mg/kg.
Data set [22] is described as follows: Plasma concentration in mouse at 25 mg/kg, po after 3 hrs. The data set is classed as ADME, organism-based. On the set-up: dose 25 mg/kg, route oral.
Data set [23] concerns SJSA-1. Kind of data set: Antitumor activity against human SJSA1 cells xenografted in BALB/c SLc-nu/nu mouse assessed as increase in p53 accumulation in tumor at 25 to 100 mg/kg, po single dose by Western blot analysis. The data set is classed as functional, organism-based.
Data set [24] in a line: AUC in mouse plasma at 25 mg/kg, po. The data set is classed as ADME, organism-based. Also noted: dose 25 mg/kg, route oral.
Data set [25] in a line: Plasma concentration in mouse at 100 mg/kg, po after 3 hrs. The data set is classed as ADME, organism-based. On the set-up: dose 100 mg/kg, route oral.
The nature of data set [26]: Plasma concentration in mouse at 100 mg/kg, po after 24 hrs. The data set is classed as ADME, organism-based. Also noted: dose 100 mg/kg, route oral.
Data set [27] deals with Mus musculus. Kind of data set: Toxicity in human SJSA1 cells xenografted in BALB/c SLc-nu/nu mouse assessed as body weight loss at 100 mg/kg, po compound administered from day 17 to 20 (qdx4) measured on day 25 (reference value: <0%). The data set is classed as organism-based, SJSA-1. Also noted: dose 100 mg/kg, route oral. The settings on record: in vivo.
Data set [28] can be described thus: Plasma concentration in mouse at 50 mg/kg, po after 19 hrs. The data set is classed as ADME, organism-based. Also noted: dose 50 mg/kg, route oral.
For data set [29], the system named is Mus musculus. The data set can be described thus: Toxicity in human SJSA1 cells xenografted in BALB/c SLc-nu/nu mouse assessed as body weight loss at 25 mg/kg, po compound administered from day 17 to 20 (qdx4) measured on day 25 (reference value: <0%). The data set is classed as organism-based, SJSA-1. The conditions noted are these: in vivo. Also noted: dose 25 mg/kg, route oral.

The nature of data set [30]: Plasma concentration in mouse at 50 mg/kg, po after 24 hrs. The data set is classed as ADME, organism-based. On the set-up: dose 50 mg/kg, route oral.
Data set [31] concerns SJSA-1. The data set can be described thus: Antitumor activity against human SJSA1 cells xenografted in BALB/c SLc-nu/nu mouse assessed as tumor growth inhibition at 12.5 mg/kg, po compound administered from day 17 to 20 (qdx4) measured on day 25 (reference value: 0%). The data set is classed as functional. The conditions noted are these: read-out: TGI.
Data set [32] is described as follows: Plasma concentration in mouse at 50 mg/kg, po after 3 hrs. The data set is classed as ADME, organism-based. Also noted: dose 50 mg/kg, route oral.

The structures appear in SMILES notation. Converted amounts (≈) assume the structure as drawn. The source made the active and inactive calls. The rule behind the calls is not given here.

`CC(C)C1=C(C(=O)N2[C@H](C)CC[C@H]2C(=O)N2CCN(C)C3(CC3)C2)SC2=N[C@@](C)(c3ccc(Cl)cc3)[C@@H](c3ccc(Cl)cc3)N21` returned a GI50 at 72 h in [1] of 17200 nM. In data set [2], this molecule gave a GI50 of 1080 nM. The same molecule registered a solubility in data set [3] of 38 µg/mL (≈ 57 µM). For the same molecule, the remaining at 0.5 h, 1 µM in [4] is 41%.

Regarding `CC(C)C1=C(C(=O)N2[C@H](C)CC[C@H]2C(=O)N2CCN(C)[C@H](C)C2)SC2=N[C@@](C)(c3ccc(Cl)cc3)[C@@H](c3ccc(Cl)cc3)N21`, growth in [2] was halved (GI50) at 850 nM. In addition, the remaining at 0.5 h, 1 µM in data set [4] stood at 74%.

`CC(C)C1=C(C(=O)N2[C@H](C)CC[C@H]2C(=O)N2CC3(CC3)NC[C@@H]2C)SC2=N[C@@](C)(c3ccc(Cl)nc3)[C@@H](c3ccc(Cl)c(F)c3)N21` showed a GI50 at 72 h in data set [1] above 50000 nM. This molecule also yielded a GI50 in data set [2] of 240 nM. Further, the solubility in [3] was determined as 720 µg/mL (≈ 1050 µM). The remaining at 0.5 h, 1 µM in data set [4] came to 100%.

For `CC(C)C1=C(C(=O)N2[C@H](C)CC[C@H]2C(=O)N2CCNC3(CC3)C2)SC2=N[C@@](C)(c3ccc(Cl)cc3)[C@@H](c3ccc(Cl)cc3)N21`, the 50% growth inhibitory concentration (GI50) at 72 h in [1] amounted to 16200 nM. In [2], this molecule came in with a 50% growth inhibitory concentration (GI50) of 650 nM. Moreover, the solubility in [3] was 56 µg/mL (≈ 85.8 µM). The remaining at 0.5 h, 1 µM in data set [4] was found to be 87%.

As for `CC(C)C1=C(C(=O)N2[C@H](C)CC[C@H]2C(=O)N2CCNC3(CC3)C2)SC2=N[C@@](C)(c3ccc(Cl)nc3)[C@@H](c3ccc(Cl)c(F)c3)N21`, the concentration for 50% growth inhibition (GI50) at 72 h in data set [1] was above 50000 nM. This molecule returned a GI50 in data set [2] of 660 nM. This molecule also registered a solubility in [3] of 330 µg/mL (≈ 491 µM). For the same molecule, the remaining at 0.5 h, 1 µM in data set [4] turned out to be 80%.

For the molecule `CC[C@@H]1CNC2(CC2)CN1C(=O)[C@@H]1C[C@@H](F)CN1C(=O)C1=C(C(C)C)N2C(=N[C@@](C)(c3ccc(Cl)nc3)[C@H]2c2ccc(Cl)c(F)c2)S1`, the Activity in data set [5] is reported as 0.2%; in [16], 0.7%; in data set [27] it was 1.2%; in [29] it was 0.2%. For the same molecule, the Cmax in data set [6] was 15900 ng/mL; in [17], 6000 ng/mL; in data set [18], 26100 ng/mL. Further, the result in [7], in data set [13], in data set [21] and in data set [23] was Active. The GI50 at 72 h in data set [1] was above 50000 nM. Further, the figures for the concentration at 6 h in data set [8], in data set [14] and in [20] were 3600 ng/mL, 12400 ng/mL and 22300 ng/mL, respectively. Also, the inhibition in vivo at 100 mg/kg in [9] was 96.6%. Moreover, in data set [10], the inhibition in vivo at 50 mg/kg worked out at 93.7%. Besides, the inhibition in vivo at 25 mg/kg in [11] came to 72.3%. Also, the values for the area under the curve (AUC) in data set [12], in data set [15] and in [24] were 147 µg·h/mL, 259 µg·h/mL and 47.1 µg·h/mL, respectively. The same molecule had a concentration for 50% growth inhibition (GI50) in [2] of 170 nM. For the same molecule, the concentration at 19 h in data set [19] amounted to 160 ng/mL; in [28] it was 10 ng/mL. Also, the figures for the concentration at 3 h in data set [22], in data set [25] and in [32] were 6000 ng/mL, 26100 ng/mL and 15900 ng/mL, respectively. The concentration at 24 h in data set [26] is 10 ng/mL; in [30], 20 ng/mL. Also, the inhibition in vivo at 12.5 mg/kg in [31] came out at 29.7%. The same molecule displayed a solubility in data set [3] of 420 µg/mL (≈ 597 µM). In [4], the remaining at 0.5 h, 1 µM is 84%.

`CC(C)C1=C(C(=O)N2C[C@H](F)C[C@H]2C(=O)N2CC3(CC3)NC[C@@H]2C)SC2=N[C@@](C)(c3ccc(Cl)nc3)[C@@H](c3ccc(Cl)c(F)c3)N21`: the GI50 at 72 h in data set [1] is above 50000 nM. Moreover, in data set [2], the 50% growth inhibitory concentration (GI50) amounted to 26 nM. The molecule also had a solubility in [3] of 640 µg/mL (≈ 928 µM). In data set [4], the remaining at 0.5 h, 1 µM turned out to be 79%.

Consider `CC(C)C1=C(C(=O)N2[C@H](C)CC[C@H]2C(=O)N2CCNC3(CC3)C2)SC2=N[C@@](C)(c3ccc(Cl)cc3)[C@@H](c3ccc(Cl)c(F)c3)N21`, for which the concentration for 50% growth inhibition (GI50) at 72 h in data set [1] amounted to 16700 nM. In addition, the 50% growth inhibitory concentration (GI50) in [2] was 350 nM. Moreover, the concentration in solution in data set [3] (solubility) was 51 µg/mL (≈ 76 µM). Besides, the remaining at 0.5 h, 1 µM in data set [4] came out at 85%.
